{"source": "paper PMC8674921", "about": "(ACS Omega, 2021)", "key": {"[1]": {"system": "AChE", "conditions": "read-out: IC50 AChE; cited from earlier work"}, "[2]": {"target": "T1, recombinant hMAO-B (Homo sapiens, UniProt P27338)", "T1 sequence (P27338 1-520)": "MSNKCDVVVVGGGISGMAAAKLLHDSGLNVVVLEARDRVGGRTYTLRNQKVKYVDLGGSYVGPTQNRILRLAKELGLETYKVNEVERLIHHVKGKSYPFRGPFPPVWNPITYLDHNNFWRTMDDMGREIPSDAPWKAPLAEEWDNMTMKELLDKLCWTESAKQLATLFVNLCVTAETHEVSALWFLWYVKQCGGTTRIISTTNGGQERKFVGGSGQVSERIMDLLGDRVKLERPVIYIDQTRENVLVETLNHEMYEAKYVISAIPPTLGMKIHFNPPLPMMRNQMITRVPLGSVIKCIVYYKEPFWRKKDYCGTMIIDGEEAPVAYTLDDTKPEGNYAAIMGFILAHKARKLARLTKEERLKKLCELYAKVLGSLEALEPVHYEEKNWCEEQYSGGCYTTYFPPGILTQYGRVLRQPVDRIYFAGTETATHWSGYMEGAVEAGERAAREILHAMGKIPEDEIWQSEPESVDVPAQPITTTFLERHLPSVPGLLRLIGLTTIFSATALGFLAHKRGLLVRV", "experiment": "hMAO-B inhibitory assay", "assay_type": "biochemical"}, "[3]": {"system": "BACE 1", "conditions": "read-out: IC50 BACE 1; cited from earlier work"}, "[4]": {"target": "human D2LR (transfected HEK-293 membrane homogenates) (Homo sapiens, UniProt P14416)", "sequence (P14416 whole entry)": "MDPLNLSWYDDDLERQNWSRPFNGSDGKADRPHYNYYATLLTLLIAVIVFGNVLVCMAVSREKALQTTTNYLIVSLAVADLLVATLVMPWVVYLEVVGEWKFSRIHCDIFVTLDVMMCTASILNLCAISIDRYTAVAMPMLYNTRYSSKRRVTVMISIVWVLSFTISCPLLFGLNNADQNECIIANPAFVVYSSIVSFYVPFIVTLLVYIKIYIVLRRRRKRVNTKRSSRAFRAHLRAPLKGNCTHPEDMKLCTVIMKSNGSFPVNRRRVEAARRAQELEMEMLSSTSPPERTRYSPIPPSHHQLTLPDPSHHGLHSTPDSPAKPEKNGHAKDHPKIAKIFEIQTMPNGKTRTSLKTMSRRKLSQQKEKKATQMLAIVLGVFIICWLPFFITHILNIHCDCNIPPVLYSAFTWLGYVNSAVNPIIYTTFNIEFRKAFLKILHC", "experiment": "Antagonist radioligand binding assay, D2L receptor", "conditions": "50 μM kurarinone, [3H]methylspiperone, mean of duplicate"}, "[5]": {"target": "T2, recombinant hMAO-A (Homo sapiens, UniProt P21397)", "T2 sequence (P21397 1-527)": "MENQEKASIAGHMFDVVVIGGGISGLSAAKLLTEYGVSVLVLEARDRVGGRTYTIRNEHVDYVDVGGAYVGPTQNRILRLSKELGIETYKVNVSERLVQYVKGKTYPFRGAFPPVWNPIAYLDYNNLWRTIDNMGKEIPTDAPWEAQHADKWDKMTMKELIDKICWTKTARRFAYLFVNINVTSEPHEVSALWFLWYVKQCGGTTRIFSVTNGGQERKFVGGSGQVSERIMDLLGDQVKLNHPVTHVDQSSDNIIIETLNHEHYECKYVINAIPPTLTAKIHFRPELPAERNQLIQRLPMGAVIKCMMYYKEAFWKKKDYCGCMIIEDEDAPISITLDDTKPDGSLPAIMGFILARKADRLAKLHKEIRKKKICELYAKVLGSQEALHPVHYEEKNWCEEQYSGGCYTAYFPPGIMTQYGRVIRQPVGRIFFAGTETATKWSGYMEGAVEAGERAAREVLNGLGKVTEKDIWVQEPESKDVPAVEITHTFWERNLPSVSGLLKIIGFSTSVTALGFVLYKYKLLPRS", "experiment": "hMAO-A inhibitory assay", "assay_type": "biochemical"}, "[6]": {"system": "BChE", "conditions": "read-out: IC50 BChE; cited from earlier work"}, "[7]": {"target": "hD2L receptor (CHO-D2LR cells) (Homo sapiens, UniProt P14416)", "sequence (P14416 whole entry)": "as the sequence (P14416 whole entry) above", "experiment": "Functional GPCR assay, intracellular calcium flux, hD2L", "assay_type": "cell-based"}, "[8]": {"target": "GABAA receptors", "conditions": "read-out: EC50 GABAA receptors modulating effect; cited from earlier work"}, "[9]": {"target": "hD1 receptor (CHO-D1R cells) (Homo sapiens, UniProt P21728)", "sequence (P21728 whole entry)": "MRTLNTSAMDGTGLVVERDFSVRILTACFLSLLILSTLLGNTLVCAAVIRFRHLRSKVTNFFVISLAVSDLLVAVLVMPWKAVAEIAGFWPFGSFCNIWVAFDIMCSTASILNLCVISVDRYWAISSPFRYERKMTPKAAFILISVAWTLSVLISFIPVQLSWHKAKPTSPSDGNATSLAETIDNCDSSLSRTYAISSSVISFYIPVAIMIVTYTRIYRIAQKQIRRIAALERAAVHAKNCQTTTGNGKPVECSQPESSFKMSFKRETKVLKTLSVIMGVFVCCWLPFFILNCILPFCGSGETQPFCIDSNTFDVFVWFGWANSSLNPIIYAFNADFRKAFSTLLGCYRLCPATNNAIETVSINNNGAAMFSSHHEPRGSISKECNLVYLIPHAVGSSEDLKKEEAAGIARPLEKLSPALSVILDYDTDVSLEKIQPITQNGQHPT", "experiment": "Functional GPCR assay, cAMP level", "assay_type": "cell-based"}, "[10]": {"target": "T3, hD4 receptor (CHO-D4R cells) (Homo sapiens, UniProt P21917)", "T3 sequence (P21917 1-419)": "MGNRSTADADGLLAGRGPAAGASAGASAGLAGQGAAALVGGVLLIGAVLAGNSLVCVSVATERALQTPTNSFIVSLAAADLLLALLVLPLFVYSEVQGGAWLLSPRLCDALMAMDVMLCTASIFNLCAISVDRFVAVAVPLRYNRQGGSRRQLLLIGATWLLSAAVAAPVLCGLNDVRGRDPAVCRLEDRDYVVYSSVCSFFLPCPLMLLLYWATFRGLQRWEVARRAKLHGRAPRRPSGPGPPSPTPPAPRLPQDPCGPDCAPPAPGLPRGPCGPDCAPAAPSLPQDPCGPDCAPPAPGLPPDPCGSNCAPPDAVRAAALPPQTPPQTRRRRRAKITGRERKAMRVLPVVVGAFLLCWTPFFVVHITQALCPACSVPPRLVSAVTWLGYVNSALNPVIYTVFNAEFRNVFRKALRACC", "experiment": "Functional GPCR assay, cAMP level", "assay_type": "cell-based"}, "[11]": {"target": "T4, h5-HT1A receptor (Ba/F3-5-HT1AR cells) (Homo sapiens, UniProt P08908)", "T4 sequence (P08908 1-422)": "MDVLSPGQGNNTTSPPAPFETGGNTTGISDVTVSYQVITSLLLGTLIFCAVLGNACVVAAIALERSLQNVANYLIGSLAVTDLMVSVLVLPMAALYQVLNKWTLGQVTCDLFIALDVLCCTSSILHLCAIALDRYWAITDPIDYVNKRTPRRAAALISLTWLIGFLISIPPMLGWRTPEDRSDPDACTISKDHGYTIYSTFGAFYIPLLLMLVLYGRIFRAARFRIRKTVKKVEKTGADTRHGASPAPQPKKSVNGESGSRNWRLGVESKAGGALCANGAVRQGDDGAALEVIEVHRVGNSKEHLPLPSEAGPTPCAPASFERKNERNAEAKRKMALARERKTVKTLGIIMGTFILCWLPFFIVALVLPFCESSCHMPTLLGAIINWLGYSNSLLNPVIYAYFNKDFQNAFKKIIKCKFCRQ", "experiment": "Functional GPCR assay, intracellular calcium mobilization, h5-HT1A"}, "[12]": {"target": "human D3R (CHO-D3R membrane homogenates) (Homo sapiens, UniProt P35462)", "sequence (P35462 whole entry)": "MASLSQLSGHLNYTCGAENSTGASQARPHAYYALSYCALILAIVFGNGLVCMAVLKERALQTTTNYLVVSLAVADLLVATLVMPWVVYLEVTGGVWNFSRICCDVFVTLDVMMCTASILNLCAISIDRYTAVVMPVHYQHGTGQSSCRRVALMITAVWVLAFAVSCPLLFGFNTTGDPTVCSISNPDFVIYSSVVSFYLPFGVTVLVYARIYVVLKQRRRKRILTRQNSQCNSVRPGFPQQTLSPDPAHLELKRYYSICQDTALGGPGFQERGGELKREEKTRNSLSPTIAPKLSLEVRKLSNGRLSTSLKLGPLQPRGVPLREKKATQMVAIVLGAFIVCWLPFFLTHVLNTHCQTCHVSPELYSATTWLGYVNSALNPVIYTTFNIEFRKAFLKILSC", "experiment": "Antagonist radioligand binding assay, D3 receptor", "conditions": "read-out: % inhibition of control-specific binding"}, "[13]": {"target": "T5, human D4R (CHO-D4R membrane homogenates) (Homo sapiens, UniProt P21917)", "T5 sequence (P21917 1-419)": "T3 sequence (P21917 1-419)", "experiment": "Antagonist radioligand binding assay, D4 receptor", "conditions": "50 μM kurarinone, [3H]methylspiperone, mean of duplicate"}, "[14]": {"target": "human V1AR (recombinant CHO-V1AR membrane homogenates) (Homo sapiens, UniProt P37288)", "sequence (P37288 whole entry)": "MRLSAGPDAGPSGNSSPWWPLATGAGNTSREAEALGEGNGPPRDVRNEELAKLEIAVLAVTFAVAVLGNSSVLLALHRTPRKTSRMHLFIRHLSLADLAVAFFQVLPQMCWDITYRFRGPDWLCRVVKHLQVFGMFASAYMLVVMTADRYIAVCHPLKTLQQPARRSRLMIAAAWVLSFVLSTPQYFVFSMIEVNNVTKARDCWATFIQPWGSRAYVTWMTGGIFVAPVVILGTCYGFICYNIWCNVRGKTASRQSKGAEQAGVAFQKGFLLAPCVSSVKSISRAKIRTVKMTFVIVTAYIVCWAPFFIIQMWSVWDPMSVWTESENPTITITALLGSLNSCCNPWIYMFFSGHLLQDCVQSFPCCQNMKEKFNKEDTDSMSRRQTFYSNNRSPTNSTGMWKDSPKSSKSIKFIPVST", "experiment": "Agonist radioligand binding assay, vasopressin V1A receptor", "conditions": "read-out: % inhibition of control-specific binding"}, "[15]": {"target": "human D1R (recombinant CHO-D1R membrane homogenates) (Homo sapiens, UniProt P21728)", "sequence (P21728 whole entry)": "as the sequence (P21728 whole entry) above", "experiment": "Antagonist radioligand binding assay, D1 receptor", "conditions": "50 μM kurarinone, [3H]SCH-23390, mean of duplicate"}, "[16]": {"system": "hMAO-A", "conditions": "read-out: IC50 hMAO-A; selective hMAO-A inhibition; cited from earlier work"}, "[17]": {"conditions": "read-out: % inhibition of control agonist effect"}}}
{"compound": "C=C(C)[C@H](CC=C(C)C)Cc1c(O)cc(OC)c2c1O[C@H](c1ccc(O)cc1O)CC2=O", "note": "[kurarinone]", "values": [{"measurement": "IC50", "setting": "[1]", "result": "74.3 ± 7.85", "unit": "µM"}, {"measurement": "IC50", "setting": "[2]", "result": "198 ± 12.7", "unit": "µM"}, {"measurement": "Inhibition type hMAO-B", "setting": "[2]; Lineweaver-Burk plots", "result": "mixed"}, {"measurement": "IC50", "setting": "[3]", "result": "24.5 ± 1.73", "unit": "µM"}, {"measurement": "% inhibition of control-specific binding", "setting": "[4]", "result": 78.5, "unit": "%"}, {"measurement": "IC50", "setting": "[5]", "result": "186 ± 6.17", "unit": "µM"}, {"measurement": "Ki", "setting": "[5]; Ki hMAO-A, Dixon and secondary plots", "result": "65.1 ± 3.53", "unit": "µM"}, {"measurement": "Inhibition type hMAO-A", "setting": "[5]; Lineweaver-Burk plots", "result": "competitive"}, {"measurement": "IC50", "setting": "[6]", "result": "5.29 ± 0.67", "unit": "µM"}, {"measurement": "agonist response in antagonist mode assay", "setting": "[7]; 100 μM, D2LR, antagonist mode", "result": "at least 25%"}, {"measurement": "% stimulation of control agonist effect", "setting": "[7]; 100 μM, hD2L, agonist mode, control 10 μM DA", "result": "113 ± 28.9", "unit": "%"}, {"measurement": "agonist or agonist-like effect flag in antagonist mode", "setting": "[7]; 100 μM, hD2L, antagonist mode", "result": "AGO (the test compound induced at least 25% agonist or agonist-like effect at this concentration)"}, {"measurement": "EC50", "setting": "[7]; EC50 (50% of control agonist effect), hD2L, agonist mode, mean ± S.D., duplicate", "result": "22.4 ± 3.46", "unit": "µM"}, {"measurement": "inhibition at 100 µM", "setting": "[7]; [17]", "result": 43.8, "unit": "%"}, {"measurement": "EC50", "setting": "[8]", "result": "8.1 ± 1.4", "unit": "µM"}, {"measurement": "% stimulation of control agonist effect", "setting": "[9]; 100 μM, hD1, agonist mode, control 10 μM DA", "result": "0.25 ± 0.64", "unit": "%"}, {"measurement": "inhibition at 100 µM", "setting": "[9]; [17]", "result": 98.5, "unit": "%"}, {"measurement": "EC50", "setting": "[10]", "result": "71.3 ± 4.94", "unit": "µM"}, {"measurement": "% stimulation of control agonist effect", "setting": "[10]; 100 μM, hD4, agonist mode, control 1000 nm DA", "result": "71.7 ± 6.36", "unit": "%"}, {"measurement": "inhibition at 100 µM", "setting": "[10]; [17]", "result": -4.2, "unit": "%"}, {"measurement": "% stimulation of control agonist effect", "setting": "[11]; 100 μM, h5-HT1A, agonist mode, control 0.625 μM 5-HT", "result": "17.8 ± 1.13", "unit": "%"}, {"measurement": "inhibition at 100 µM", "setting": "[11]; [17]", "result": 30.3, "unit": "%"}, {"measurement": "inhibition at 50 µM", "setting": "[12]", "result": 49.2, "unit": "%"}, {"measurement": "% inhibition of control-specific binding", "setting": "[13]", "result": 71.1, "unit": "%"}, {"measurement": "inhibition at 50 µM", "setting": "[14]", "result": 47.6, "unit": "%"}, {"measurement": "% inhibition of control-specific binding", "setting": "[15]", "result": "> 70", "unit": "%"}, {"measurement": "% inhibition of control-specific binding", "setting": "[15]; listed as Kurarinone", "result": 99.1, "unit": "%"}]}
{"compound": "C=C(C)[C@H](CC=C(C)C)Cc1c(O)cc(O)c2c1O[C@H](c1ccc(O)cc1O)CC2=O", "note": "[sophoraflavone G]", "values": [{"measurement": "IC50", "setting": "[16]", "result": "38.8 ± 1.1", "unit": "µM"}]}
